Measurements reported in patent publication US6825210B2, “Tricyclic compounds useful as HIV reverse transcriptase inhibitors” (Bristol-Myers Squibb Pharma Company, priority 2001, dated 2004).
In brackets after ≈: the same amount, converted by molar mass.

Test system: not given
Experiment: not given
Conditions: not given

SMILES	melting point [°C]
CC(C)OCC1(C(F)(F)F)c2cc(C#N)ccc2Nc2ncc(C#N)cc21 (stereo not drawn) [Compound 17, 3,7-dicyano-5-trifluoromethyl-5-isopropoxymethyl-5,10-dihydrobenzo[b][1,8]naphthyridine]	226 to 227
CC(C)OCC1(C(F)(F)F)c2cc(F)ccc2Nc2c1cc(Cl)c[n+]2[O-] (stereo not drawn) [Compound 7, 3-Chloro-7-fluoro-5-isopropoxymethyl-5-trifluoromethyl-5,10-dihydro-benzo[b][1,8]naphthyridine 1-oxide]	165 to 166

Now from value to molecule:

melting point [°C]	SMILES
137 to 138	CC(C)OCC1(C(F)(F)F)c2cc(Cl)ccc2Nc2ncc(Cl)cc21 (stereo not drawn) [Compound 9, 3,7-Dichloro-5-isopropoxymethyl-5-trifluoromethyl-5,10-dihydro-benzo[b][1,8]naphthyridine]
76 to 77	CC(C)OCC1(C(F)(F)F)c2cc(C#N)ccc2Nc2ncc(Br)cc21 (stereo not drawn) [Compound 15, 3-bromo-7-cyano-5-trifluoromethyl-5-isopropoxymethyl-5,10-dihydrobenzo[b][1,8]naphthyridine]
96 to 97	CC(C)OCC1(C(F)(F)F)c2cc(F)ccc2Nc2ncc(Cl)cc21 (stereo not drawn) [Compound 6, 3-Chloro-7-fluoro-5-isopropoxymethyl-5-trifluoromethyl-5,10-dihydro-benzo[b][1,8]naphthyridine]

Test system: HIV-1 (RF)
Experiment: HIV RNA assay: microplate based compound evaluation in HIV-1 infected MT-2 cells
Format: cell-based
Conditions: Human immunodeficiency virus 1, MT2, 72 h; HIV-1 (RF) infected MT-2 cells, 3 days culture; value used to standardize the virus inoculum; read-out: IC90 (concentration of compound required to reduce the HIV RNA level by 90%)
Procedure: DNA Plasmids and in Vitro RNA Transcripts:
Plasmid pDAB 72 containing both gag and pol sequences of BH10 (bp 113-1816) cloned into PTZ 19R was prepared according to Erickson-Viitanen et al. AIDS Research and Human Retroviruses 1989, 5, 577. The plasmid was linearized with Bam HI prior to the generation of in vitro RNA transcripts using the Riboprobe Gemini system II kit (Promega) with T7 RNA polymerase. Synthesized RNA was purified by treatment with RNase free DNAse (Promega), phenol-chloroform extraction, and ethanol precipitation. RNA transcripts were dissolved in water, and stored at −70° C. The concentration of RNA was determined from the A260.
Biotinylated capture probes were purified by HPLC after synthesis on an Applied Biosystems (Foster City, Calif.) DNA synthesizer by addition of biotin to the 5′ terminal end of the oligonucleotide, using the biotin-phosphoramidite reagent of Cocuzza, Tet. Lett. 1989, 30, 6287. […]
MT-2 and MT-4 cells were maintained in RPMI 1640 supplemented with 5% fetal calf serum (FCS) for MT-2 cells or 10% FCS for MT-4 cells, 2 mM L-glutamine and 50 μg/mL gentamycin, all from Gibco. […] Infectious titers of HIV-1(RF) stocks were 1-3×10^7 PFU (plaque forming units)/mL as measured by plaque assay on MT-2 cells (see below). […]

IC90 [µg/mL]	SMILES
0.2 (≈ 0.947 µM)	Nc1ccn([C@H]2CC[C@@H](CO)O2)c(=O)n1 [ddC, 2′,3′-dideoxycytidine]
